{
  "source": "patent US4999358A",
  "about": "“(1,2,3,4-tetrahydro-9-acridinimino)cyclohexane carboxylic acid and related compounds” (Hoechst-Roussel Pharmaceuticals Inc., priority 1989, dated 1991)",
  "key": {"[1]": {"tested_on": "Scopolamine Induced Memory Deficit", "test": "Scopolamine-induced Dark Avoidance Assay", "conditions": "s.c., mice, 24 h", "method": "In this assay mice are tested for their ability to remember an unpleasant stimulus for a period of 24 hours. A mouse is placed in a chamber that contains a dark compartment; a strong incandescent light drives it to the dark compartment, where an electric shock is administered through metal plates on the floor. The animal is removed from the testing apparatus and tested again, 24 hours later, for the ability to remember the electric shock.\nIf scopolamine, an anticholinergic that is known to cause memory impariment, is administered before an animal's initial exposure to the test chamber, the animal re-enters the dark compartment shortly after being placed in the test chamber 24 hours later."}, "acetylcholinesterase": {"biological_target": "acetylcholinesterase (Homo sapiens, UniProt P22303)", "sequence (P22303 32-614)": "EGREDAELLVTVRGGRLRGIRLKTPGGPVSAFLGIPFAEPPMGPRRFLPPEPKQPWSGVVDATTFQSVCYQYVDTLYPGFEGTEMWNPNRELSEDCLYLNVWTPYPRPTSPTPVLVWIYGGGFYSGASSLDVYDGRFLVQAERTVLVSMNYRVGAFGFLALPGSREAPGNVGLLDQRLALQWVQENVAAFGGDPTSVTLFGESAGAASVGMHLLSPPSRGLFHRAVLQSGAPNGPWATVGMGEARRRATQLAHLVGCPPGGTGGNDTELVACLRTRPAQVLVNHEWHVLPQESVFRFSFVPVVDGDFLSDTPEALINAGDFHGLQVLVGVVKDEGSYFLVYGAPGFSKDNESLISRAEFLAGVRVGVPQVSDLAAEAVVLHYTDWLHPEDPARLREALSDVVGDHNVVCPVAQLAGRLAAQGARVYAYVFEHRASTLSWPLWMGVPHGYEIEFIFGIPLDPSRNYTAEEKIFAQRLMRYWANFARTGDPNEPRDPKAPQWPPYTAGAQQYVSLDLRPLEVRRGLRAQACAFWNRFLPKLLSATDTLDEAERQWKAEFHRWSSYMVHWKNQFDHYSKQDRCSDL", "test": "Cholinesterase inhibition assay (photometric method of Ellman et al.)", "assay_type": "biochemical"}},
  "data": [
    {"smiles": "CNC(=O)Oc1ccc2c(c1)[C@]1(C)CCN(C)[C@@H]1N2C", "note": "[Physostigmine, reference compound]", "values": [
      {"measurement": "% of Animals with Scopolamine Induced Memory Deficit Reversal", "setting": "[1]; 0.31 mg/kg of body weight", "value": 20, "unit": "%"}
    ]},
    {"smiles": "CC1(C(=O)O)CCCCC1=Nc1c2c(nc3ccccc13)CCCC2", "note": "(stereo not drawn) [1-Methyl-2-(1,2,3,4-tetrahydroacridinimino)cyclohexane carboxylic acid]", "values": [
      {"measurement": "% of Animals with Scopolamine Induced Memory Deficit Reversal", "setting": "[1]; 2.5 mg/kg of body weight", "value": 20, "unit": "%"}
    ]},
    {"smiles": "O=C(OCc1ccccc1)C1=C(N(Cc2ccccc2)c2c3c(nc4ccccc24)CCCC3)CCCC1", "note": "[2-[N-(Phenylmethyl)-1,2,3,4-tetrahydro-9-acridinamino]-cyclohex-1-ene carboxylic acid phenylmethyl ester]", "values": [
      {"measurement": "% of Animals with Scopolamine Induced Memory Deficit Reversal", "setting": "[1]; 0.63 mg/kg of body weight", "value": 29, "unit": "%"}
    ]},
    {"smiles": "O=C(O)C1CCCCC1=Nc1c2c(nc3ccccc13)CCCC2", "note": "(stereo not drawn) [2-(1,2,3,4-Tetrahydro-9-acridinimino)cyclohexanecarboxylic acid]", "values": [
      {"measurement": "% of Animals with Scopolamine Induced Memory Deficit Reversal", "setting": "[1]; 0.63 mg/kg of body weight", "value": 53, "unit": "%"}
    ]},
    {"smiles": "CCOC(=O)C1CCCCC1=Nc1c2c(nc3ccccc13)CCCC2", "note": "(stereo not drawn) [2-(1,2,3,4-Tetrahydro-9-acridinimino)cyclohexanecarboxylic acid ethyl ester]", "values": [
      {"measurement": "IC50", "setting": "acetylcholinesterase", "value": 15.2, "unit": "µM"},
      {"measurement": "% of Animals with Scopolamine Induced Memory Deficit Reversal", "setting": "[1]; 0.16 mg/kg of body weight", "value": 29, "unit": "%"}
    ]}
  ]
}
